{"source": "patent US8017602B2", "about": "“N-(2-(2-(5-hydroxy-3-oxo-3,4-dihydro-2H-benzo[b][1,4]oxazin-8-yl)ethylamino)ethyl)-3-(phenethoxy)propanamide derivatives, processes for their preparation, pharmaceutical compositions containing them and their use in therapy” (AstraZeneca AB, priority 2008, dated 2011)", "key": {"Adrenergic β2": {"target": "T1, Adrenergic β2 (Homo sapiens, UniProt P07550)", "T1 construct": "Adherent H292 cells were removed from tissue culture flasks; endogenous in cells; host or cells: H292 cells", "T1 sequence (P07550 whole entry)": "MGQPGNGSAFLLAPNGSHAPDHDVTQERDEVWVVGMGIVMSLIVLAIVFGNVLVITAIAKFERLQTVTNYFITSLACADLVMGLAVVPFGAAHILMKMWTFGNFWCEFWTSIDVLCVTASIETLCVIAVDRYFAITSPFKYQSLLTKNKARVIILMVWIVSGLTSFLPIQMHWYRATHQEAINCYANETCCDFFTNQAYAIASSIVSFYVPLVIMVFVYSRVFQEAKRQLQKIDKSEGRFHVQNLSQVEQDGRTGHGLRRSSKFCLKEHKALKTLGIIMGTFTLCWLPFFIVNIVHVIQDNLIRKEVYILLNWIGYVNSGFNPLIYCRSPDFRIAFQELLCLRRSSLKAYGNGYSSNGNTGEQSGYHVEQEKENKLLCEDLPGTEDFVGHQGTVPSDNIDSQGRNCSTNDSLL", "experiment": "Adrenergic β2 mediated cAMP production in H292 cells (AlphaScreen cAMP detection)", "assay_type": "cell-based", "conditions": "for β2 Int Act: Intrinsic Activity, fraction relative to the maximum activity determined for formoterol; for EC50: cAMP production, 60 min at room temperature, 300 μM rolipram, read-out: β2 pEC50 (converted)", "experimental": "H292 cells were grown in 225 cm2 flasks incubator at 37° C., 5% CO2 in RPMI medium containing, 10% (v/v) FBS (foetal bovine serum) and 2 mM L-glutamine.\nAdherent H292 cells were removed from tissue culture flasks by treatment with Accutase™ cell detachment solution for 15 min. Flasks were incubated for 15 min in a humidified incubator at 37° C., 5% CO2. Detached cells were re-suspended in RPMI media (containing 10% (v/v) FBS and 2 mM L-glutamine) at […]. 10000 cells in 100 μl were added to each well of a tissue-culture-treated 96-well plate and the cells incubated overnight in a humidified incubator at 37° C., 5% CO2. The culture media was removed and cells were washed twice with 100 μl assay buffer and replaced with 50 μL assay buffer (HBSS solution containing 10 mM HEPES pH7.4 and 5 mM glucose). Cells were rested at room temperature for 20 min after which time 25 μl of rolipram (1.2 mM made up in assay buffer containing 2.4% (v/v) dimethylsulphoxide) was added. Cells were incubated with rolipram for 10 min after which time test compounds were added and the cells were incubated for 60 min at room temperature. The final rolipram concentration in the assay was 300 μM and final vehicle concentration was 1.6% (v/v) dimethylsulphoxide. The reaction was stopped by removing supernatants, washing once with 100 μL assay buffer and replacing with 50 μL lysis buffer. The cell monolayer was frozen at −80° C. for 30 min (or overnight).\nAlphaScreen™ cAMP Detection\nThe concentration of cAMP (cyclic adenosine monophosphate) in the cell lysate was determined using AlphaScreen™ methodology. The frozen cell plate was thawed for 20 min on a plate shaker then 10 μl of the cell lysate was transferred to a 96-well white plate. 40 μL of mixed AlphaScreen™ detection beads pre-incubated with biotinylated cAMP, was added to each well and the plate incubated at room temperature for 10 h in the dark. The AlphaScreen™ signal was measured using an EnVision spectrophotometer (Perkin-Elmer Inc.) with the recommended manufacturer's settings. cAMP concentrations were determined by reference to a calibration curve determined in the same experiment using standard cAMP concentrations. Concentration response curves for agonists were constructed and data was fitted to a four parameter logistic equation to determine both the pEC50 and Intrinsic Activity. Intrinsic Activity was expressed as a fraction relative to the maximum activity determined for formoterol in each experiment."}, "[1]": {"target": "T2, recombinant human α1D receptor (Homo sapiens, UniProt P25100)", "T2 construct": "expressed in transfected cells; host or cells: HEK293", "T2 sequence (P25100 1-572)": "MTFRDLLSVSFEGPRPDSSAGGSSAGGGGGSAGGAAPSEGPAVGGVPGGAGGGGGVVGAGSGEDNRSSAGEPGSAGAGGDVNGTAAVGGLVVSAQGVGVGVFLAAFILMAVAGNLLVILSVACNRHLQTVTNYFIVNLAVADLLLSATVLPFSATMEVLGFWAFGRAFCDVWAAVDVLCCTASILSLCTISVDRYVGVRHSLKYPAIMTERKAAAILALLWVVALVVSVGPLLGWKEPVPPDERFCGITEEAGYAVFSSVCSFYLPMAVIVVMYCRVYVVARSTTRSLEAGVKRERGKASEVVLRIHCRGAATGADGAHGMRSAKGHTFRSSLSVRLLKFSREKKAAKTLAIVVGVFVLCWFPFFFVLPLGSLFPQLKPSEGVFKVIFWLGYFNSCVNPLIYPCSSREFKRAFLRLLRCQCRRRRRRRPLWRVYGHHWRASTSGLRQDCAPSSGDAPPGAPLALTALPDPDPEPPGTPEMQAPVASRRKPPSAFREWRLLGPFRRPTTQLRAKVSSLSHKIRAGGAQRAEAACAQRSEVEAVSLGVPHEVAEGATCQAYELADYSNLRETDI", "experiment": "Adrenergic α1D selectivity binding assay ([3H]-prazosin)", "conditions": "inhibition of [3H]-prazosin binding, HEK293 membranes, read-out: α1 bind pIC50 (converted)", "experimental": "Membranes were prepared from human embryonic kidney 293 (HEK293) cells expressing recombinant human α1D receptor. These were diluted in Assay Buffer (50 mM HEPES, 1 mM EDTA, pH 7.4) to provide a final concentration of membranes that gave a clear window between maximum and minimum specific binding.\n(§1) Assays were performed in U-bottomed 96-well polypropylene plates. 10 μl [^3H]-prazosin (0.3 nM final concentration) and 10 μl of test compound (10× final concentration) were added to each test well. For each assay plate 8 replicates were obtained for [^3H]-prazosin binding in the presence of 10 μl vehicle (10% (v/v) DMSO in Assay Buffer; defining maximum binding) or 10 μL BMY7378 (10 μM final concentration; defining non-specific binding (NSB)). Membranes were then added to achieve a final volume of 100 μL. The plates were incubated for 2 h at room temperature and then filtered onto PEI coated GF/B filter plates, pre-soaked for 1 h in Assay Buffer, using a 96-well plate Tomtec cell harvester. Five washes with 250 μl wash buffer (50 mM HEPES, 1 mM EDTA, pH 7.4) were performed at 4° C. to remove unbound radioactivity. The plates were dried then sealed from underneath using Packard plate sealers and MicroScint-O (50 μl) was added to each well. The plates were sealed (TopSeal A) and filter-bound radioactivity was measured with a scintillation counter (TopCount, Packard BioScience) using a 3-minute counting protocol.\n(§2) Total specific binding (B0) was determined by subtracting the mean NSB from the mean maximum binding. NSB values were also subtracted from values from all other wells. […] Data was fitted to a four parameter logistic equation to determine the compound potency, which was expressed as pIC50 (negative log molar concentration inducing 50% inhibition of [^3H]-prazosin binding)."}, "[2]": {"target": "T3, recombinant human Dopamine Subtype D2s receptors (Homo sapiens, UniProt P14416)", "T3 construct": "purchased Perkin Elmer", "T3 sequence (P14416 1-414 isoform P14416-2)": "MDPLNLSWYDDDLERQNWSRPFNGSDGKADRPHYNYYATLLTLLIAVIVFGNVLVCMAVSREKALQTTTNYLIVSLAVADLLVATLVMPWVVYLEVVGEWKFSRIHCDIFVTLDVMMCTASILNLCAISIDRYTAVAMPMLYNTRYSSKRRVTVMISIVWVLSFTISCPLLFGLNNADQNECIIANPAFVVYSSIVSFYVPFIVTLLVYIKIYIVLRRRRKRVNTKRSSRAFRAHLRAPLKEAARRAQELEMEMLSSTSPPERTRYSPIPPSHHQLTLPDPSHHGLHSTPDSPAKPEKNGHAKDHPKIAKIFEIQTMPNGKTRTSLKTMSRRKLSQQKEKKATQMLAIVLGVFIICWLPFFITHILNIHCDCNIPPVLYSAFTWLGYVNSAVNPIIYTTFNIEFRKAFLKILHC", "experiment": "Dopamine D2 selectivity binding assay ([3H]-spiperone)", "conditions": "inhibition of [3H]-spiperone binding, human D2s membranes; read-out: D2 bind pIC50 (converted)", "experimental": "(§3) Membranes containing recombinant human Dopamine Subtype D2s receptors were obtained from Perkin Elmer. These were diluted in Assay Buffer (50 mM HEPES, 1 mM EDTA, 120 mM NaCl, 0.1% gelatin, pH 7.4) to provide a final concentration of membranes that gave a clear window between maximum and minimum specific binding.\nAssays were performed in U-bottomed 96-well polypropylene plates. 30 μL [^3H]-spiperone (0.16 nM final concentration) and 30 μl of test compound (10× final concentration) were added to each test well. For each assay plate 8 replicates were obtained for [^3H]-spiperone binding in the presence of 30 μL vehicle (10% (v/v) DMSO in Assay Buffer; defining maximum binding) or 30 μl Haloperidol (10 μM final concentration; defining non-specific binding (NSB)). Membranes were then added to achieve a final volume of 300 μL. The plates were incubated for 2 h at room temperature and then filtered onto PEI coated GF/B filter plates, pre-soaked for 1 h in Assay Buffer, using a 96-well plate Tomtec cell harvester. Five washes with 250 μl wash buffer (50 mM HEPES, 1 mM EDTA, 120 mM NaCl, pH 7.4) were performed at 4° C. to remove unbound radioactivity. The plates were dried then sealed from underneath using Packard plate sealers and MicroScint-O (50 μl) was added to each well. The plates were sealed (TopSeal A) and filter-bound radioactivity was measured with a scintillation counter (TopCount, Packard BioScience) using a 3-minute counting protocol.\nas §2, with “[^3H]-spiperone” for “[^3H]-prazosin”"}, "[3]": {"target": "T4, recombinant human adrenergic beta 1 receptors (Homo sapiens, UniProt P08588)", "T4 construct": "purchased Euroscreen", "T4 sequence (P08588 whole entry)": "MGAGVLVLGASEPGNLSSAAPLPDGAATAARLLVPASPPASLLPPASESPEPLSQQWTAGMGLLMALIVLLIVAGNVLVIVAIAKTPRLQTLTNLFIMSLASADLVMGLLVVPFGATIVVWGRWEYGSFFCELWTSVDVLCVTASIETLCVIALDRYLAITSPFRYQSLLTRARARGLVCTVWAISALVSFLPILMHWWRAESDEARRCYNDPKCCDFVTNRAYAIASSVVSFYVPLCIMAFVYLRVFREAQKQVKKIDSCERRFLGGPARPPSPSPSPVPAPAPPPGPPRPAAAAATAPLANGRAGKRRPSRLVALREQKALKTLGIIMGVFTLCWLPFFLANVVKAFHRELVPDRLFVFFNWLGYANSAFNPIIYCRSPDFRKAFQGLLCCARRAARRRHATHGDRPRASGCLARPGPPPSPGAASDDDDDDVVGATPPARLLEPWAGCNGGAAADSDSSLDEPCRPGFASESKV", "experiment": "Adrenergic β1 selectivity binding assay ([125I]-Iodocyanopindolol)", "conditions": "inhibition of [125I]-Iodocyanopindolol binding, human β1 membranes; read-out: β1 bind p IC50 (converted)", "experimental": "as §3, with “adrenergic beta 1” for “Dopamine Subtype D2s”, “Euroscreen.” for “Perkin Elmer.”\nas §1, with “plates. 10 μL [^125I]-Iodocyanopindolol (0.036 nM final” for “plates. 10 μl [^3H]-prazosin (0.3 nM final”, “and 10 μL of test” for “and 10 μl of test”, “obtained for [^125I]-Iodocyanopindolol binding in” for “obtained for [^3H]-prazosin binding in”, “or 10 μl Propranolol (10 μM” for “or 10 μL BMY7378 (10 μM”, “with 250 μL wash buffer” for “with 250 μl wash buffer”, “mM EDTA, 120 mM NaCl, pH 7.4)” for “mM EDTA, pH 7.4)”\nas §2, with “[^125I]-Iodocyanopindolol” for “[^3H]-prazosin”"}}, "note": "Counter-ions that a name gives are not always drawn.", "data": [{"molecule": "Cn1cc(-c2cccc(CCOCCC(=O)N(CCNCCc3ccc(O)c4c3OCC(=O)N4)C3CCCCCC3)c2)nn1", "note": "[Example 06, N-Cycloheptyl-N-(2-(2-(5-hydroxy-3-oxo-3,4-dihydro-2H-benzo[b][1,4]oxazin-8-yl)ethylamino)ethyl)-3-(3-(1-methyl-1H-1,2,3-triazol-4-yl)phenethoxy)propanamide Trifluoroacetic Acid Salt]", "values": [{"measurement": "β2 Int Act", "setting": "Adrenergic β2", "value": 0.95}, {"measurement": "EC50", "setting": "Adrenergic β2", "value": 12.6, "unit": "nM"}, {"measurement": "IC50", "setting": "[1]", "value": 1580, "unit": "nM"}, {"measurement": "IC50", "setting": "[2]", "value": 2000, "unit": "nM"}]}, {"molecule": "CCn1cc(-c2cccc(CCOCCC(=O)N(CCNCCc3ccc(O)c4c3OCC(=O)N4)[C@H](C)C(C)C)c2)cn1", "note": "[Example 23, (R)-3-(3-(1-Ethyl-1H-pyrazol-4-yl)phenethoxy)-N-(2-(2-(5-hydroxy-3-oxo-3,4-dihydro-2H-benzo[b][1,4]oxazin-8-yl)ethylamino)ethyl)-N-(3-methylbutan-2-yl)propanamide Trifluoroacetic Acid Salt]", "values": [{"measurement": "β2 Int Act", "setting": "Adrenergic β2", "value": 0.98}, {"measurement": "EC50", "setting": "Adrenergic β2", "value": 6.31, "unit": "nM"}, {"measurement": "IC50", "setting": "[3]", "value": "> 10000", "unit": "nM"}, {"measurement": "IC50", "setting": "[1]", "value": 794, "unit": "nM"}]}, {"molecule": "Cn1cc(-c2cccc(CCOCCC(=O)N(CCNCCc3ccc(O)c4c3OCC(=O)N4)C3CCCCC3)c2)cn1", "note": "[01 and 02]", "values": [{"measurement": "β2 Int Act", "setting": "Adrenergic β2", "value": 0.96}, {"measurement": "EC50", "setting": "Adrenergic β2", "value": 6.31, "unit": "nM"}, {"measurement": "IC50", "setting": "[3]", "value": "> 7940", "unit": "nM"}, {"measurement": "IC50", "setting": "[1]", "value": 1000, "unit": "nM"}]}, {"molecule": "CCCn1cc(-c2cccc(CCOCCC(=O)N(CCNCCc3ccc(O)c4c3OCC(=O)N4)C3CCCC3)c2)cn1", "note": "[Example 18, N-Cyclopentyl-N-(2-(2-(5-hydroxy-3-oxo-3,4-dihydro-2H -benzo[b][1,4]oxazin-8-yl)ethylamino)ethyl)-3-(3-(1-propyl-1H -pyrazol-4-yl)phenethoxy)propanamide Trifluoroacetic Acid Salt]", "values": [{"measurement": "β2 Int Act", "setting": "Adrenergic β2", "value": 0.97}, {"measurement": "EC50", "setting": "Adrenergic β2", "value": 10, "unit": "nM"}, {"measurement": "IC50", "setting": "[3]", "value": "> 7940", "unit": "nM"}, {"measurement": "IC50", "setting": "[1]", "value": 1000, "unit": "nM"}]}, {"molecule": "CC(C)[C@@H](C)N(CCNCCc1ccc(O)c2c1OCC(=O)N2)C(=O)CCOCCc1cccc(-c2cnn(C(C)C)c2)c1", "note": "[Example 20, (R)—N-(2-(2-(5-Hydroxy-3-oxo-3,4-dihydro-2H-benzo[b][1,4]oxazin-8-yl)ethylamino)ethyl)-3-(3-(1-isopropyl-1H-pyrazol-4-yl)phenethoxy)-N-(3-methylbutan-2-yl)propanamide Trifluoroacetic Acid Salt]", "values": [{"measurement": "β2 Int Act", "setting": "Adrenergic β2", "value": 1.00}, {"measurement": "EC50", "setting": "Adrenergic β2", "value": 10, "unit": "nM"}, {"measurement": "IC50", "setting": "[3]", "value": "> 10000", "unit": "nM"}, {"measurement": "IC50", "setting": "[1]", "value": 501, "unit": "nM"}]}, {"molecule": "O=C1COc2c(CCNCCN(C(=O)CCOCCc3cccc(-c4ncon4)c3)C3CCCCC3)ccc(O)c2N1", "note": "[Example 11, 3-(3-(1,2,4-Oxadiazol-3-yl)phenethoxy)-N-cyclohexyl-N-(2-(2-(5-hydroxy-3-oxo-3,4-dihydro-2H-benzo[b][1,4]oxazin-8-yl)ethylamino)ethyl)propanamide Trifluoroacetic Acid Salt]", "values": [{"measurement": "β2 Int Act", "setting": "Adrenergic β2", "value": 0.85}, {"measurement": "EC50", "setting": "Adrenergic β2", "value": 10, "unit": "nM"}, {"measurement": "IC50", "setting": "[1]", "value": 631, "unit": "nM"}, {"measurement": "IC50", "setting": "[2]", "value": 3980, "unit": "nM"}]}]}
